The values that follow come from paper PMC10051477, “5,8-Dimethyl-9H-carbazole Derivatives Blocking hTopo I Activity and Actin Dynamics” (Pharmaceuticals, 2023).

Assay [1] deals with T1, labeled rabbit muscle actin (Oryctolagus cuniculus, UniProt P68135).
T1 construct: fluorescent label (chemical); purchased Abcam; host or cells: rabbit muscle
Put plainly: In vitro actin polymerization assay. In kind it is biochemical. The following applies: 5 µM, 1 h, room temperature; vehicle plateau about 25,000 RFU. An excerpt: With the aim to confirm the immunofluorescence results and substantiate whether compounds 3 and 4 could inhibit the actin polymerization mechanism and/or boost the F-actin depolymerization, we employed a fluorescent-labeled purified rabbit actin. LA and cytochalasin B (CB) were used as positive controls for both the polymerization inhibition and F-actin subunits dissociation, or only the polymerization inhibition, respectively. In the negative control reaction (only vehicle), actin monomers undergo a normal polymerization, as visible in Figure 5, panel A. The reaction curve rises in approximately 5 min to a value of about 25,000 RFU (plateau) which remains almost unvaried until the end of the experiment. Contrariwise, the two reference molecules, i.e., LA and CB, used at the concentration of 5 µM, braked the actin polymerization, mostly LA rather than CB, under the adopted experimental conditions, and the LA curve dropped until a value of about 8000 RFU at the reaction end.
(§1) An Actin Polymerization/Depolymerization Assay Kit, purchased from Abcam, was employed to assess the ability of compounds 3 and 4 to interfere with the actin polymerization and depolymerization processes. To perform the essays, the manufacturer’s instructions were followed with some modifications. In particular, polymerization assay was carried out incubating in a white 96-well plate the reconstituted actin with supplemented Buffer G, compounds 3 and 4 and then Buffer P was added in order to induce actin polymerization. For the Actin Depolymerization Assay, the actin polymerization was first induced, incubating supplemented Buffers P and G at room temperature for one hour. Then, compounds 3 and 4 were added at a concentration of 5 μM. Latrunculin A (LA) and Cytochalasin B (CB) were utilized as positive control at a concentration of 5 μM. For both the assays, the assemblage of the actin filaments was defined by measuring the fluorescence (Ex/Em: 365/410 nm) in kinetic mode for 1 h at room temperature in a microplate reader.

Assay [2] has as its target T2, F-actin (labeled rabbit muscle actin) (Oryctolagus cuniculus, UniProt P68135).
T2 construct: fluorescent label (chemical); purchased Abcam; host or cells: rabbit muscle
Put plainly: In vitro F-actin depolymerization assay. It counts as biochemical. Conditions: 5 µM added after 1 h polymerization. The procedure: Moreover, we performed the F-actin depolymerization assay to verify whether compounds 3 and 4 could induce the actin depolymerization as well as the LA does (Figure 5, panel B). For this purpose, we started the actin polymerization for one hour under the same experimental conditions used previously. Then, we added the compounds or the reference molecules at the concentration of 5 µM and monitored the reactions for an additional hour. […] The addition of CB was not able to produce the same effect of LA. […] Contrarily, both the compounds were able to induce an important depolymerizing effect on the F-actin, most evident in the first 7 min after the exposure. Particularly, compounds 3 and 4 produced final values of approximately 14,000 and 12,000 RFU, respectively. […] This combined effect leads to a disorganization of the intracellular actin network.
as §1

In another assay the test system is MCF-7 cells. The experiment in a line: MTT assay, MCF-7 cell viability. In kind it is cell-based. The following applies: Homo sapiens, MCF7, 72 h, mean ± standard deviation. The procedure:
(§2) MTT assays (Sigma Aldrich (St.Louis, MO, USA)) were employed to evaluate the in vitro anticancer activities of all the studied compounds, as previously described. The compounds were tested at different concentrations (0.1-1-10-25-50-100 μM) for 72 h. The IC50 values were calculated from the percent (%) of control using GraphPad Prism 9 (GraphPad Software, La Jolla, CA, USA).

The next assay deals with MDA-MB-231 cells. Put plainly: MTT assay, MDA-MB-231 cell viability. The following applies: Homo sapiens, 72 h, mean ± standard deviation. It counts as cell-based. How it is done:
(§3) The inhibition of cancer cell growth exerted by the five considered compounds (1–5) has been evaluated in vitro against two models of breast cancer, namely the estrogen receptor positive (ER+) MCF-7 and the triple negative MDA-MB-231 human breast cancer cells (lacking ER, PR, and HER-2/Neu amplification), together with the normal counterpart, namely the non-malignant breast epithelial cells MCF-10A. […] Moreover, no effects were recorded against the MCF-7 cells, at least until the concentration of 100 μM. […] Thus, the two lead compounds were chosen for subsequent studies aiming at individuating the molecular mechanisms underlying the observed anticancer activity.
as §2

Another assay has as its system MCF-10A cells. The experiment in a line: MTT assay, MCF-10A normal cell viability. It counts as cell-based, human. Conditions: Homo sapiens, MCF-10A, 72 h, non-malignant breast epithelial cells, mean ± standard deviation. How it is done:
as §3, §2

In assay [3] the test system is actin system in MDA-MB-231 cells. The experiment in a line: Actin immunofluorescence in MDA-MB-231 cells. In kind it is cell-based, human. The following applies: MDA-MB-231, 24 h; compounds at their IC50 values, LA 0.1 µM. The procedure: In order to determine whether the lead compounds 3 and 4 may effectively regulate the actin system, we employed both the immunofluorescence and in vitro direct enzymatic assays. […] As negative and positive controls, we used the only vehicle (DMSO) and latrunculin A (LA) at a concentration of 0.1 µM, respectively. After processing, the cells were observed under a fluorescent microscope, (see experimental section for the details). […] Moreover, the latter looked brighter and stocked in the cytoplasm in dot-like structures or thicker fibers. Again, the MDA-MB-231 cells, under exposure to compounds 3 and 4, lost their shape (Figure 4, compounds 3 and 4, panels B), as we observed under LA treatment, and with a very similar arrangement of the actin network.
The cells were plated and further processed, as previously indicated. Specifically, the rabbit anti-β-Actin (Santa Cruz Biotechnology, Dallas, TX, USA), diluted 1:100 in bovine serum albumin (BSA) 2%, was used as primary antibody and incubated overnight at 4 °C. The secondary antibody, Alexa Fluor® 488 conjugate goat-anti-rabbit, was diluted 1:500 and incubated for 2 h at 37 °C. DAPI (4′,6-diamidino-2-phenylindole, Sigma Aldrich, Milan, Italy) 0.2 μg/mL was used for nuclei staining. A fluorescence microscope (Leica DM 6000) was utilized for fluorescence detection (40× magnification). LAS-X software allowed acquiring and processing all the fluorescence images, which are representative of three separate experiments.

As for `C=C1[C@@H](C)[C@H]2[C@H](Cc3ccccc3)NC(=O)[C@]23OC(=O)/C=C/[C@H](O)CCC[C@@H](C)C/C=C/[C@H]3[C@@H]1O` [CB, Cytochalasin B, reference compound], the “Actin polymerization, final fluorescence value of reaction curve” value in assay [1] is “approximately 13,000 RFU”. In assay [2], the F-actin depolymerizing effect entry was “does not induce the F-actin depolymerization”.
On to `Cc1ccc(C)c2c1c1cc(Br)ccc1n2C(=O)OC(C)(C)C` [Compound 1], for which the IC50 with MCF-7 cells is more than 100 µM; with MDA-MB-231 cells it was 43.5 ± 1.21 µM; in the assay with MCF-10A cells, more than 100 µM.
For `COc1ccc2c(c1)c1c(C)ccc(C)c1n2C(=O)OC(C)(C)C` [Compound 2], the values for the concentration for half-maximal inhibition (IC50) in the assay with MCF-7 cells, in the assay on MDA-MB-231 cells and in the assay on MCF-10A cells were more than 100 µM, 8.19 ± 0.26 µM and 89.16 ± 0.47 µM, respectively.
The like results for `Cc1ccc(C)c2c1[nH]c1ccc(O)cc12` [Compound 5, 5,8-Dimethyl-9H-carbazol-3-ol] were, in that order, more than 100 µM, 6.59 ± 0.68 µM and more than 100 µM.
For the compound `Cc1c2ccncc2c(C)c2c1[nH]c1ccccc12` [Ellipticine, reference compound], the IC50 was found to be 1.92 ± 0.38 µM in the assay on MDA-MB-231 cells and 1.12 ± 0.51 µM in the assay with MCF-10A cells.
Turning to `C/C1=C/C(=O)O[C@@H]2C[C@@H](CC[C@H](C)/C=C\C=C\CC1)O[C@@](O)([C@@H]1CSC(=O)N1)C2` [LA, Latrunculin A, reference compound], the “Actin polymerization, final fluorescence value of reaction curve” value in assay [1] is on record as “about 8000 RFU”. Besides, the “Effect on actin organization (immunofluorescence)” value in assay [3] was “the cells underwent an important shape change”. Further, in assay [2] (monitored 1 h, vehicle 20,000 RFU), the “F-actin depolymerization, final fluorescence value of reaction curve” value is “about 8000 RFU”.
